For the assay, the target named is hTREM2 (Homo sapiens, UniProt Q9NZC2). The assay can be described thus: Phospho-Syk AlphaScreen/AlphaLISA assay in TREM2 and DAP12 overexpressing HEK293 cells (Example A1). To be noted: HEK293 cells; for EC50: read-out: hTREM2 EC50. Format: cell-based. Details: expressed in transfected cells. The protocol:
Pharmacological measurements of TREM2 signaling through DAP12 were made with TREM2 and DAP12 overexpressing HEK293 cells stable cell lines that had been single-cell cloned (“TREM2/DAP12-HEK”). The readout of the TREM2 signaling utilized Perkin Elmer AlphaScreen/AlphaLISA technology monitoring the phosphorylation levels of the Syk kinase. TREM2/DAP12-HEK cell lines were cultured in DMEM-F12 (Corning 10-092-CM) supplemented with 1× Penicillin/Streptomycin (Corning 30-002-CI), 1× GlutaMAX (Gibco 35050-061), and 10% Fetal Bovine Serum (Life Technologies 10099) referred to as “HEK Culture Medium”. Suspensions of TREM2/DAP12-HEK cells were prepared in HEK Culture Medium and dispensed into 384-well poly-D-lysine coated microplates (Corning 354661) at a density of 20,000 cells/well using a Multidrop Combi peristaltic microplate dispenser (Thermo), 25 uL volume of cell suspension/well. Plates containing cells were then incubated for 20 hours in a humidified cell culture incubator at 37° C. with 5% CO2 (Thermo). […] Assay Buffer contained diluted test articles (in 1% final DMSO concentration for compounds) or 100 nM anti-human/mouse TREM2 antibody (R&D Systems MAB17291) as a positive control, 100 nM or rat IgG2B isotype Ab as a negative control (R&D Systems MAB0061). Incubated the plates with test articles and controls for 45 minutes at room temperature and then aspirated/removed the medium from each well of the plates. Used a Multidrop Combi peristaltic liquid handler (Thermo) to dispense 15 uL/well of “Cell Lysis Immunoassay Buffer”. The Cell Lysis Immunoassay Buffer contained M-PER Mammalian Protein Extraction Reagent (Pierce/ThermoFisher 78505), 1× Halt Phosphatase Inhibitor Cocktail (ThermoFisher #78427), 0.1875 nM anti-phospho-Syk ([…]/526) ([…]) rabbit mAb (Cell Signaling Technologies catalog #2710), and 1.5 nM biotinylated Mouse anti-human Syk (4D10) antibody (BD Biosciences, catalog #624008). Incubated plates for 1 hour at room temperature after the addition of the Cell Lysis Immunoassay Buffer. Used the Multidrop Combi liquid handler to dispense 15 μL of AlphaScreen Acceptor Bead Solution containing 7.5 μg/mL anti-rabbit IgG (Fc specific) AlphaLISA Acceptor Beads (Perkin Elmer A[…]) in 1× Immunoassay buffer (Perkin Elmer A[…]) to each well of the microplates. Incubated plates for 2 hours at room temperature. Following the incubation with the AlphaLISA Acceptor Bead Solution, used a Multidrop Combi liquid handler (Thermo) to dispense 15 μL of AlphaScreen Donor Bead Solution containing 30 μg/mL of AlphaScreen Streptavidin Donor beads (Perkin Elmer 6760002B) in 1× Immunoassay buffer (Perkin Elmer A[…]) to each well of the microplates. Incubated microplates for 2 hours protected from light sources as the AlphaScreen reagents are light sensitive. Once the final incubation was completed, acquired AlphaScreen signal from the donor and acceptor beads using an Envision high throughput multi-modal microplate reader (Perkin Elmer) calibrated to the plate type with the AlphaScreen mirror and filter-set in 384-well mode, 680 nanometer excitation wavelength. The total measurement time per well was 550 milliseconds with a 180 millisecond excitation time. After reading the AlphaScreen signal for each well of the microplates, on a plate-by-plate basis, each raw test article well value (x) was normalized to a Percent of Control (“POC”) value using the following formula: […] Each plate contained 12 of each type of control wells that were used to generate the mean values. For concentration response curve analysis with test articles tested at various concentrations, the % of activation values were analyzed with 4 Parameter Logistic or Sigmoidal Dose-Response Models using GeneData Screener (GeneData, AG) or GraphPad Prism 7 (Graphpad Software, Inc.). […] This assay may be used to test any of the compounds described herein to assess and characterize a compound's ability to act as an agonist of TREM2.

Chain of hTREM2 (Q9NZC2 19-230): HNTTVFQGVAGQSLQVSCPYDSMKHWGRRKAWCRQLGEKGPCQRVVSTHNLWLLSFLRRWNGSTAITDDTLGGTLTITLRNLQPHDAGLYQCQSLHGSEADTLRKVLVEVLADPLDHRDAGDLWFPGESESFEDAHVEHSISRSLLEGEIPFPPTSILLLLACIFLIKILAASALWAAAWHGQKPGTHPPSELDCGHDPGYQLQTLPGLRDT
Chain of hTREM2 (O43914 22-113 partner): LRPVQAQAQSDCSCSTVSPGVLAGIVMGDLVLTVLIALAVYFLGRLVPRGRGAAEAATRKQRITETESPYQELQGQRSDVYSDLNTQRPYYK

Take “5-(4-chloro-2-fluorophenyl)-2,3-dimethyl-7-((2R,4R)-2-(1-methyl-1H-pyrazol-4-yl)tetrahydro-2H-pyran-4-yl)pyrido[4,3-d]pyrimidin-4(3H)-one and 5-(4-chloro-2-fluorophenyl)-2,3-dimethyl-7-((2S,4S)-2-(1-methyl-1H-pyrazol-4-yl)tetrahydro-2H-pyran-4-yl)pyrido[4,3-d]pyrimidin-4(3H)-one [Example 161]”: the Emax result was “+++ (Emax>200 and ≤300)”; the EC50 was in the range of 0.5 to 3 µM.
Turning to `Cc1nc2cc(C3=CC(c4cnn(C)c4)OCC3)nc(-c3ccc(Cl)cc3F)c2c(=O)n1C` (racemic) [Example 164, 5-(4-chloro-2-fluorophenyl)-2,3-dimethyl-7-(6-(1-methyl-1H-pyrazol-4-yl)-3,6-dihydro-2H-pyran-4-yl)pyrido[4,3-d]pyrimidin-4(3H)-one], the Emax result is “+++ (Emax>200 and ≤300)”; the concentration for a half-maximal effect (EC50) was in the range of 0.05 to 0.5 µM.
On to `Cc1nc2cc([C@@H]3CCO[C@@H](c4cccnc4)C3)nc(-c3ccc(Cl)cc3F)c2c(=O)n1C` (relative stereo) [Example 176, 5-(4-chloro-2-fluorophenyl)-2,3-dimethyl-7-((2R,4R)-2-(3-pyridinyl)tetrahydro-2H-pyran-4-yl)pyrido[4,3-d]pyrimidin-4(3H)-one and 5-(4-chloro-2-fluorophenyl)-2,3-dimethyl-7-((2S,4S)-2-(3-pyridinyl)tetrahydro-2H-pyran-4-yl)pyrido[4,3-d]pyrimidin-4(3H)-one], for which the Emax result is reported as “++++ (Emax>300)” and the EC50 fell in the range of 0.5 to 3 µM.
As for `CCn1cc([C@H]2CN(c3cc4nc(C)n(C)c(=O)c4c(-c4ccc(Cl)cc4F)n3)CCO2)cn1` (single isomer, unassigned) [Example 23], the Emax entry was “++++ (Emax>300)” and the EC50 is less than 0.05 µM.
As to `CCn1cc([C@@H]2CN(c3cc4nc(C)n(C)c(=O)c4c(-c4ccc(Cl)cc4F)n3)CCO2)cn1` (single isomer, unassigned) [Example 24], the Emax result is given as “++++ (Emax>300)” and the 50% effective concentration (EC50) was in the range of 0.05 to 0.5 µM.
Regarding `Cc1nc2cc(N3C[C@H](c4cnn(C)c4)OC[C@H]3C)nc(-c3ccc(Cl)cc3F)c2c(=O)n1C` (single isomer, unassigned) [Example 25], the Emax result was “+++ (Emax>200 and ≤300)”; the EC50 was 0.5 to 3 µM.
Regarding `Cc1nc2cc(N3C[C@@H](c4cnn(C)c4)OC[C@H]3C)nc(-c3ccc(Cl)cc3F)c2c(=O)n1C` (single isomer, unassigned) [Example 26], the Emax result was “+++ (Emax>200 and ≤300)”; the EC50 fell in the range of 0.5 to 3 µM.
With `Cc1nc2cc(N3C[C@@H](C)O[C@H](c4cnn(C)c4)C3)nc(-c3ccc(Cl)cc3F)c2c(=O)n1C` (single isomer, unassigned) [Example 27], the Emax result is on record as “++++ (Emax>300)” and the EC50 lay in the range of 0.05 to 0.5 µM.
As to `Cc1nc2cc(N3C[C@@H](C)O[C@@H](c4cnn(C)c4)C3)nc(-c3ccc(Cl)cc3F)c2c(=O)n1C` (single isomer, unassigned) [Example 28], the Emax entry is “+++ (Emax>200 and ≤300)”; the EC50 is less than 0.05 µM.
`Cc1nc2cc(N3C[C@@H](c4cnn(C)c4)O[C@@H](C)C3)nc(-c3ccc(Cl)cc3F)c2c(=O)n1C` (single isomer, unassigned) [Example 29]: the Emax result was “+++ (Emax>200 and ≤300)”; the EC50 fell in the range of 0.5 to 3 µM.
Consider `Cc1nc2cc(N3C[C@H](C)O[C@@H](c4cnn(C)c4)C3)nc(-c3ccc(Cl)cc3F)c2c(=O)n1C` (single isomer, unassigned) [Example 30], for which the Emax result was “+++ (Emax>200 and ≤300)”; the EC50 fell in the range of 0.5 to 3 µM.
With `Cc1nc2cc(N3C[C@@H](C)O[C@@H](C4CC4)C3)nc(-c3ccc(Cl)cc3F)c2c(=O)n1C` (single isomer, unassigned) [Example 34], the Emax result is “++++ (Emax>300)” and the EC50 lay within 0.5 to 3 µM.
For the compound `Cc1nc2cc(N3C[C@H](C)O[C@@H](C4CC4)C3)nc(-c3ccc(Cl)cc3F)c2c(=O)n1C` (single isomer, unassigned) [Example 35], the Emax entry is “+++ (Emax>200 and ≤300)”; the EC50 lay in the range of 0.5 to 3 µM.
Turning to `Cc1nc2cc(N3C[C@@H](C)O[C@H](C4CC4)C3)nc(-c3ccc(Cl)cc3F)c2c(=O)n1C` (single isomer, unassigned) [Example 36], the Emax entry was “+++ (Emax>200 and ≤300)”; the EC50 was in the range of 3 to 100 µM.
With `Cc1nc2cc(N3C[C@@H](C4CC4)O[C@@H](C)C3)nc(-c3ccc(Cl)cc3F)c2c(=O)n1C` (single isomer, unassigned) [Example 37], the Emax entry is recorded as “++++ (Emax>300)” and the EC50 lay within 0.05 to 0.5 µM.
Turning to `Cc1nc2cc(N3CCO[C@@H]([C@H]4CCO4)C3)nc(-c3ccc(Cl)cc3F)c2c(=O)n1C` (single isomer, unassigned) [Example 38], the Emax entry is “+++ (Emax>200 and ≤300)”; the EC50 lay in the range of 0.5 to 3 µM.
In the case of `Cc1nc2cc(N3CCO[C@@H]([C@@H]4CCO4)C3)nc(-c3ccc(Cl)cc3F)c2c(=O)n1C` (single isomer, unassigned) [Example 39], the Emax result was “+++ (Emax>200 and ≤300)”; the EC50 is 0.5 to 3 µM.
Take `Cc1nc2cc(N3CCO[C@H]([C@@H]4CCO4)C3)nc(-c3ccc(Cl)cc3F)c2c(=O)n1C` (single isomer, unassigned) [Example 40]: the Emax result is “+++ (Emax>200 and ≤300)”; the EC50 is 0.5 to 3 µM.
Consider `Cc1nc2cc(N3CCO[C@H]([C@H]4CCO4)C3)nc(-c3ccc(Cl)cc3F)c2c(=O)n1C` (single isomer, unassigned) [Example 41], for which the Emax result was “+++ (Emax>200 and ≤300)”; the concentration giving a half-maximal response (EC50) fell in the range of 0.5 to 3 µM.
As to `Cc1nc2cc(N3CCO[C@@H]([C@H]4CCOC4)C3)nc(-c3ccc(Cl)cc3F)c2c(=O)n1C` (single isomer, unassigned) [Example 42], the Emax entry was “++++ (Emax>300)” and the concentration giving a half-maximal response (EC50) is 0.05 to 0.5 µM.
As to `Cc1nc2cc(N3CCO[C@H]([C@H]4CCOC4)C3)nc(-c3ccc(Cl)cc3F)c2c(=O)n1C` (single isomer, unassigned) [Example 43], the Emax result was “+++ (Emax>200 and ≤300)”; the EC50 lay in the range of 0.05 to 0.5 µM.
Regarding `Cc1nc2cc(N3CCO[C@@H]([C@@H]4CCOC4)C3)nc(-c3ccc(Cl)cc3F)c2c(=O)n1C` (single isomer, unassigned) [Example 44], the Emax result is “+++ (Emax>200 and ≤300)”; the EC50 is 0.05 to 0.5 µM.
As for `Cc1nc2cc(N3CCO[C@H]([C@@H]4CCOC4)C3)nc(-c3ccc(Cl)cc3F)c2c(=O)n1C` (single isomer, unassigned) [Example 45], the concentration for a half-maximal effect (EC50) fell in the range of 0.5 to 3 µM.
With `Cc1nc2cc(N3CCO[C@@H](c4cccnc4)C3)nc(-c3ccc(Cl)cc3F)c2c(=O)n1C` (single isomer, unassigned) [Example 46], the Emax result is listed as “++++ (Emax>300)” and the concentration for a half-maximal effect (EC50) was in the range of 0.05 to 0.5 µM.
For `Cc1nc2cc(N3CCO[C@H](c4cccnc4)C3)nc(-c3ccc(Cl)cc3F)c2c(=O)n1C` (single isomer, unassigned) [Example 47], in that order: “++++ (Emax>300)” and 3 to 100 µM.
With `Cc1nc2cc(N3CCO[C@H](c4ccncc4)C3)nc(-c3ccc(Cl)cc3F)c2c(=O)n1C` (single isomer, unassigned) [Example 48], the Emax entry was “+++ (Emax>200 and ≤300)”; the 50% effective concentration (EC50) is 0.5 to 3 µM.
For the compound `Cc1nc2cc(N3CCO[C@@H](c4ccncc4)C3)nc(-c3ccc(Cl)cc3F)c2c(=O)n1C` (single isomer, unassigned) [Example 49], the Emax entry is listed as “++++ (Emax>300)” and the EC50 was less than 0.05 µM.

Source of the values: patent US20250388574A1, “HETEROCYCLIC COMPOUNDS AS TRIGGERING RECEPTOR EXPRESSED ON MYELOID CELLS 2 AGONISTS AND METHODS OF USE” (AMGEN INC., priority 2020, published 2025).
